Results on 24 molecules are retold here after patent US9376418B2, “Substituted pyridine spleen tyrosine kinase (SYK) inhibitors” (Merck Sharp & Dohme Corp., priority 2012, dated 2016).

A value given as a limit tells only on which side of the number the result lay.

The target of one data set is T1, recombinant human GST-SYK (Homo sapiens, UniProt P43405).
T1 construct: purchased Carna Biosciences 08-176
The data set is described as follows: Homogeneous Time-Resolved Fluorescence (HTRF) assay for the recombinant human Syk enzyme. The format is biochemical. The settings on record: HTRF assay, recombinant human GST-SYK; IC50 given as class symbols; read-out: rhSYK Activity. Summed up: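 Enzyme […], pH 7.5 Tris/tween/DTT buffer; 10 min preincubation with compound, RT. Start: 250 nM biotin-peptide, 25 μM ATP, 5 mM Mg; 45′ RT. Stop/detect: 40 mM EDTA, Eu-anti-pTyr, SA-APC; read 30 min later.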
In general terms: In TR-FRET formats the signal depends on donor and acceptor labels being close together.
Regarding `Cc1cc(Nc2nccc(C(F)(F)F)n2)cc(-c2ccc(NC(C)(C)c3nnn[nH]3)nc2)c1` [Example 18.8, N-[3-methyl-5-(6-{[1-methyl-1-(1H-tetrazol-5-yl)ethyl]amino}pyridin-3-yl)phenyl]-4-(trifluoromethyl)pyrimidin-2-amine], the IC50 is less than 100 nM.
Regarding `Cc1cc(Nc2nccc(C(F)(F)F)n2)cc(-c2ccc(NC(C)(c3nnn[nH]3)C(C)(C)C)nc2)c1` (centres unmarked) [Example 18.9, N-[3-methyl-5-(6-{[1,2,2-trimethyl-1-(1H-tetrazol-5-yl)propyl]amino}pyridin-3-yl)phenyl]-4-(trifluoromethyl)pyrimidin-2-amine], the IC50 was less than 100 nM.
On the same count and under the same terms, the figure for `Cc1cc(Nc2nccc(C(F)(F)F)n2)cc(-c2ccc(NC(C)(C)c3nc(=O)o[nH]3)nc2)c1` [Example 18.10, 3-(2-{[5-(3-Methyl-5-{[4-(trifluoromethyl)pyrimidin-2-yl]amino}phenyl)pyridin-2-yl]amino}propan-2-yl)-1,2,4-oxadiazol-5(4H)-one] is less than 100 nM; for `Cc1cc(Nc2nccc(C(F)(F)F)n2)cc(-c2ccc(-c3noc(=O)[nH]3)nc2)c1` [Example 18.11] it is less than 100 nM.
For the molecule `Cc1cc(Nc2nccc(C(F)(F)F)n2)cc(-c2ccc(C(NC(N)=O)(C3CC3)C3CC3)nc2)c1` [Example 19.1, 1-{Dicyclopropyl[5-(3-methyl-5-{[4-(trifluoromethyl)pyrimidin-2-yl]amino}phenyl)pyridin-2-yl]methyl}urea], the IC50 was less than 100 nM.
On the same count and under the same terms, the figure for `Cc1cc(Nc2nccc(C(C)(F)F)n2)cc(-c2cccnc2)c1` [Example 20.1, 4-(1,1-Difluoroethyl)-N-[3-methyl-5-(pyridin-3-yl)phenyl]pyrimidin-2-amine] is less than 100 nM; for `Cc1cc(Nc2nccc(OC3CCNCC3)n2)cc(-c2cccnc2)c1` [Example 20.2, N-[3-methyl-5-(pyridin-3-yl)phenyl]-4-(piperidin-4-yloxy)pyrimidin-2-amine] it is less than 100 nM.
On the same count and under the same terms, the figure for `Cc1cc(Nc2ncc(Cl)c(C(F)(F)F)n2)cc(-c2cccnc2)c1` [Example 20.3] is 100 to 1000 nM; for `Cc1cc(Nc2nccc(C(F)(F)F)n2)cc(-c2ccc(S(=O)(=O)NCC(=O)O)nc2)c1` [Example 21.1, N-{[5-(3-methyl-5-{[4-(trifluoromethyl)pyrimidin-2-yl]amino}phenyl)pyridin-2-yl]sulfonyl}glycine] it is less than 100 nM; for `Cc1cc(Nc2nccc(C(F)(F)F)n2)cc(-c2ccc(S(=O)(=O)NC3CC3)nc2)c1` [Example 21.2, N-cyclopropyl-5-(3-methyl-5-{[4-(trifluoromethyl)pyrimidin-2-yl]amino}phenyl)pyridine-2-sulfonamide] it is 100 to 1000 nM.
Same read-out and setting: for `Cc1cc(Nc2nccc(C(F)(F)F)n2)cc(-c2ccc(S(=O)(=O)NC3CCNC3=O)nc2)c1` (centres unmarked) [Example 21.3, 5-(3-methyl-5-{[4-(trifluoromethyl)pyrimidin-2-yl]amino}phenyl)-N-(2-oxopyrrolidin-3-yl)pyridine-2-sulfonamide] the value was less than 100 nM; for `Cc1cc(Nc2nccc(C(F)(F)F)n2)cc(-c2ccc(S(N)(=O)=O)nc2)c1` [Example 21.4, 5-(3-methyl-5-{[4-(trifluoromethyl)pyrimidin-2-yl]amino}phenyl)pyridine-2-sulfonamide], less than 100 nM; for `CCOC(=O)/C=C/c1ccc(-c2cc(C)cc(Nc3nccc(C(F)(F)F)n3)c2)cn1` [Example 22.1, Ethyl-3-[5-(3-methyl-5-{[4-(trifluoromethyl)pyrimidin-2-yl]amino}phenyl)pyridin-2-yl]prop-2-enoate], 100 to 1000 nM.
Take `Cc1cc(Nc2nccc(C(F)(F)F)n2)cc(-c2ccc(/C=C/C(=O)O)nc2)c1` [Example 22.2, 3-[5-(3-Methyl-5-{[4-(trifluoromethyl)pyrimidin-2-yl]amino}phenyl)pyridin-2-yl]prop-2-enoic acid]: the IC50 was less than 100 nM.
The same measure, in the same setting: for `Cc1cc(Nc2nccc(C(F)(F)F)n2)cc(-c2ccc(CC(C)(C)C(=O)O)nc2)c1` [Example 22.3, 2,2-Dimethyl-3-[5-(3-methyl-5-{[4-(trifluoromethyl)pyrimidin-2-yl]amino}phenyl)pyridin-2-yl]propanic acid] the value was less than 100 nM; for `Cc1cc(Nc2nccc(C(F)(F)F)n2)cc(-c2ccc(C(O)C(C)(C)C(=O)O)nc2)c1` (centres unmarked) [Example 23.1, 3-Hydroxy-2,2-dimethyl-3-[5-(3-methyl-5-{[4-(trifluoromethyl)pyrimidin-2-yl]amino}phenyl)pyridin-2-yl]propanoic acid], less than 100 nM.
On the same count and under the same terms, for `CCOC(=O)C(F)(F)C(O)c1ccc(-c2cc(C)cc(Nc3nccc(C(F)(F)F)n3)c2)cn1` (centres unmarked) [Example 24.1, Ethyl 2,2-difluoro-3-hydroxy-3-[5-(3-methyl-5-{[4-(trifluoromethyl)pyrimidin-2-yl]amino}phenyl)pyridin-2-yl]propanoate] the value was less than 100 nM; for `Cc1cc(Nc2nccc(C(F)(F)F)n2)cc(-c2ccc(C(O)C(F)(F)C(=O)O)nc2)c1` (centres unmarked) [Example 24.2, 2,2-Difluoro-3-hydroxy-3-[5-(3-methyl-5-{[4-(trifluoromethyl)pyrimidin-2-yl]amino}phenyl)pyridin-2-yl]propanoic acid], less than 100 nM.
Same read-out and setting: the figure for `Cc1cc(Nc2nccc(C(F)(F)F)n2)cc(-c2ccc(CC(F)(F)C(=O)O)nc2)c1` [Example 24.3, 2,2-Difluoro-3-[5-(3-methyl-5-{[4-(trifluoromethyl)pyrimidin-2-yl]amino}phenyl)pyridin-2-yl]propanoic acid] is less than 100 nM.
As to `Cc1cc(Nc2nccc(C(F)(F)F)n2)cc(-c2ccc(/C=C(/F)C(=O)O)nc2)c1` [Example 24.4, (2E)-2-Fluoro-3-[5-(3-methyl-5-{[4-(trifluoromethyl)pyrimidin-2-yl]amino}phenyl)pyridin-2-yl]prop-2-enoic acid], the IC50 was less than 100 nM.
In the case of `COC(=O)Cn1cc(-c2ccc(-c3cc(C)cc(Nc4nccc(C(F)(F)F)n4)c3)cn2)nn1` [Example 25.1, Methyl {4-[5-(3-methyl-5-{[4-(trifluoromethyl)pyrimidin-2-yl]amino}phenyl)pyridin-2-yl]-1H-1,2,3-triazol-1-yl}acetate], the IC50 was 100 to 1000 nM.
Consider `Cc1cc(Nc2nccc(C(F)(F)F)n2)cc(-c2ccc(-c3cn(CC(=O)O)nn3)nc2)c1` [Example 25.2, {4-[5-(3-Methyl-5-{[4-(trifluoromethyl)pyrimidin-2-yl]amino}phenyl)pyridin-2-yl]-1H-1,2,3-triazol-1-yl}acetic acid], for which the IC50 was less than 100 nM.
Still for that read-out and setting: the figure for `CC(O)c1ccc(-c2cc(Nc3nccc(C(F)(F)F)n3)cc(C(=O)O)c2)cn1` (centres unmarked) [Example 26.1, 3-[6-(1-Hydroxyethyl)pyridin-3-yl]-5-{[4-(trifluoromethyl)pyrimidin-2-yl]amino}benzoic acid] is 100 to 1000 nM.

A further data set concerns PGD2.
Assay: not given
To be noted: dosed intranasally, phase I/II study, allergic rhinitis; cited from earlier work.
Turning to `Oc1cccc(Nc2ncc(F)c(Nc3cccc(O)c3)n2)c1` [Example R112], the “change in PGD2” value is reported as “statistically significant decrease” and the clinical safety entry is given as “safe across a range of indicators”.

System in a further data set: not given
Assay: not given
To be noted: phase II clinical trial, allergic rhinitis; cited from earlier work.
On to `Oc1cccc(Nc2ncc(F)c(Nc3cccc(O)c3)n2)c1` [Example R112], for which the efficacy versus placebo result is on record as “lack of efficacy”.
